According to paper doi:10.1101/2021.01.04.425289v1 (biorxiv, 2021):
Starred links: 1 amine or outer side, 2 acyl side, 3 side chain; linkers in the order of their positions; H or OH if unused. Residues, ends and D or L forms follow the SMILES beside them. CO = O=C([*:1])[*:2]

Molecular target: Furin (Homo sapiens, UniProt P09958)
Assay: biochemical

Furin, sequence (P09958 whole entry): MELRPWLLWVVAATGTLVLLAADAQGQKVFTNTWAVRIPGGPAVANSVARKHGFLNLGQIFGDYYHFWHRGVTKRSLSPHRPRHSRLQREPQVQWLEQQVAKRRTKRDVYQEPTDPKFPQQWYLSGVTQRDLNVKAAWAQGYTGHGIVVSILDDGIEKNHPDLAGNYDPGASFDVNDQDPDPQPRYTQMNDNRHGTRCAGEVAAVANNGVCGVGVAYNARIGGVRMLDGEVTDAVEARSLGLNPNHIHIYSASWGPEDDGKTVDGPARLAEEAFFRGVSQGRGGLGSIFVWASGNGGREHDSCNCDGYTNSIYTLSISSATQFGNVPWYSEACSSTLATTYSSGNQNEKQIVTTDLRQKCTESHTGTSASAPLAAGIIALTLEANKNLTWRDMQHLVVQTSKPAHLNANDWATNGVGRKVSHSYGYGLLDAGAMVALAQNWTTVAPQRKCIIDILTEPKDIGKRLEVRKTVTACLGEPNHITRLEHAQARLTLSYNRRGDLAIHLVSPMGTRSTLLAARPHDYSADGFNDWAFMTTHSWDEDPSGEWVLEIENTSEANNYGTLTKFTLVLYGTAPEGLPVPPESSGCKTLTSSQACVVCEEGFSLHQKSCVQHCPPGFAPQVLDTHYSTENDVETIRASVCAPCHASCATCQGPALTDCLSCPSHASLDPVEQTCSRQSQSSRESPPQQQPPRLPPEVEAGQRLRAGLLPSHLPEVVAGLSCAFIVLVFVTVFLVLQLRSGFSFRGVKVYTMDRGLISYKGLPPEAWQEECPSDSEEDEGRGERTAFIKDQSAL

SMILES	IC50
CC(C)[C@H](NC(=O)[C@H](CCCNC(=N)N)NC(=O)N[C@@H](Cc1ccccc1)C(=O)O)C(=O)N[C@H](C=O)CCCNC(=N)N [Antipain] ({Phe-CO}-Arg-Val-Arg-aldehyde)	> 10 µM
CN(C)C(=O)COC(=O)Cc1ccc(OC(=O)c2ccc(NC(=N)N)cc2)cc1 [Camostat]	> 10 µM
